The target of assay [1] is T1, Megakaryocyte-associated tyrosine-protein kinase (Homo sapiens) (UniProt P42679).
T1 sequence (whole entry): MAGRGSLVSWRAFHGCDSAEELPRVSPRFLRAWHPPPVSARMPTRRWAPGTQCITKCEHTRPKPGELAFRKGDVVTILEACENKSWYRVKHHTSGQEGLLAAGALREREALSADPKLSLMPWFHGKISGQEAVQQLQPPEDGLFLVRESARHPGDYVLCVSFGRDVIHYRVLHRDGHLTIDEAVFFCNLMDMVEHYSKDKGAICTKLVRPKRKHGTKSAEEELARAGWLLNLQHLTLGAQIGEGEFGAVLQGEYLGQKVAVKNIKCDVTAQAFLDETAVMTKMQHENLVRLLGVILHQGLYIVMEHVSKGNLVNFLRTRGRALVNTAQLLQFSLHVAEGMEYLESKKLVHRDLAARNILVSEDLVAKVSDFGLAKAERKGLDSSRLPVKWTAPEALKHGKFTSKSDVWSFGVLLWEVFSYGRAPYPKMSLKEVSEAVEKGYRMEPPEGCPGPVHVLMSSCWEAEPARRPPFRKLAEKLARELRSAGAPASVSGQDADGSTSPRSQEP
The experiment in a line: Selectivity interaction (Kinase panel (Z-LYTE Assay)) EUB0001632a MATK. The settings on record: at 10 µM.

The target in assay [2] is Dual specificity protein kinase CLK3 (Homo sapiens, UniProt P49761). As to conditions: at 10 µM.
The target in assay [3] is T2, Serine/threonine-protein kinase Nek1 (Homo sapiens) (UniProt Q96PY6).
T2 sequence (whole entry): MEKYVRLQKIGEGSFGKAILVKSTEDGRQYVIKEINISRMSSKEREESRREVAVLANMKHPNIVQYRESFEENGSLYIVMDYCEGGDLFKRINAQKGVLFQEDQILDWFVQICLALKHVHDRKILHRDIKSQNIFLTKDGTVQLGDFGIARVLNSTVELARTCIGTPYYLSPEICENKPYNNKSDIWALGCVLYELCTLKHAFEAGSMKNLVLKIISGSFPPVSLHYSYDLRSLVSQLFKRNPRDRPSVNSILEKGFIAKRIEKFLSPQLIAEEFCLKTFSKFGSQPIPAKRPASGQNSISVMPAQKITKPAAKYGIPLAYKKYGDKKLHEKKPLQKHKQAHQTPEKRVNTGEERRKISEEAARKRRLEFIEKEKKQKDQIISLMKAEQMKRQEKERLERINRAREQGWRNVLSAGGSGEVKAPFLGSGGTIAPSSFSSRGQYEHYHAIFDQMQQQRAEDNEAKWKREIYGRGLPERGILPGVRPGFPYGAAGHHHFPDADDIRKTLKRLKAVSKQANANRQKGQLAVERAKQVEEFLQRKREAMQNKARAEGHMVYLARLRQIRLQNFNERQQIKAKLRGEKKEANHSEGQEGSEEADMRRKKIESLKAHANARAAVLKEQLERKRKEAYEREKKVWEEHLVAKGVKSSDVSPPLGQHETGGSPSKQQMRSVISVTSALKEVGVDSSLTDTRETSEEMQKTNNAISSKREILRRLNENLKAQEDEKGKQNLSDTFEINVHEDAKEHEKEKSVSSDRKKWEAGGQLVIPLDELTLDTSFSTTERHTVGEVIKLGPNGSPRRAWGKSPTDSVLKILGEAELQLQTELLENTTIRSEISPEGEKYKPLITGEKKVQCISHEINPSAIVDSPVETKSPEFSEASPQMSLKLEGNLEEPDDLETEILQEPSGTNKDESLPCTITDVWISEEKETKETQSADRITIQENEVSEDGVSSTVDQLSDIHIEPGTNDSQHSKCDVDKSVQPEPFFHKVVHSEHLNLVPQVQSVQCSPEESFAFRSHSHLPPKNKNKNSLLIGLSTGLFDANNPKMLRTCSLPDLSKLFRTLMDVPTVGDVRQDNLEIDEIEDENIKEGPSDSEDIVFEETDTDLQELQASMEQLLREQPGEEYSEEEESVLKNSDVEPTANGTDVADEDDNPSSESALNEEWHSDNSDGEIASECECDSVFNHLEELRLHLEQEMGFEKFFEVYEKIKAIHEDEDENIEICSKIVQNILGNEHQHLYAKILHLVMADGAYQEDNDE
The experiment in a line: Selectivity interaction (KinomeScan (DiscoverX)) EUB0000655a NEK1. The settings on record: at 10 µM.

Assay [4] addresses 5'-AMP-activated protein kinase catalytic subunit alpha-2 (Homo sapiens) (UniProt P54646). The experiment in a line: Selectivity interaction (KinomeScan (DiscoverX)) EUB0000655a PRKAA2. The settings on record: at 10 µM.
For assay [5], the target named is Cyclin-dependent kinase 5 (Homo sapiens, UniProt Q00535). The experiment in a line: Selectivity interaction (KinomeScan (DiscoverX)) EUB0001079a CDK5. As to conditions: at 1 µM.
Assay [6] has as its target Tyrosine-protein kinase Lck (Homo sapiens, UniProt P06239). The settings on record: at 3 µM.
Assay [7] deals with Serine/threonine-protein kinase Nek4 (Homo sapiens) (UniProt P51957). The experiment in a line: Selectivity interaction (Kinase panel (Eurofins)) EUB0001564a NEK4. The settings on record: at 1 µM.
For assay [8], the target named is Serine/threonine-protein kinase VRK2 (Homo sapiens) (UniProt Q86Y07). As to the kind of experiment: Selectivity interaction (KinomeScan (DiscoverX)) EUB0000092b VRK2. As to conditions: at 10 µM.
Assay [9] concerns the target T3, Serine/threonine-protein kinase Sgk3 (Homo sapiens) (UniProt Q96BR1).
T3 sequence (whole entry): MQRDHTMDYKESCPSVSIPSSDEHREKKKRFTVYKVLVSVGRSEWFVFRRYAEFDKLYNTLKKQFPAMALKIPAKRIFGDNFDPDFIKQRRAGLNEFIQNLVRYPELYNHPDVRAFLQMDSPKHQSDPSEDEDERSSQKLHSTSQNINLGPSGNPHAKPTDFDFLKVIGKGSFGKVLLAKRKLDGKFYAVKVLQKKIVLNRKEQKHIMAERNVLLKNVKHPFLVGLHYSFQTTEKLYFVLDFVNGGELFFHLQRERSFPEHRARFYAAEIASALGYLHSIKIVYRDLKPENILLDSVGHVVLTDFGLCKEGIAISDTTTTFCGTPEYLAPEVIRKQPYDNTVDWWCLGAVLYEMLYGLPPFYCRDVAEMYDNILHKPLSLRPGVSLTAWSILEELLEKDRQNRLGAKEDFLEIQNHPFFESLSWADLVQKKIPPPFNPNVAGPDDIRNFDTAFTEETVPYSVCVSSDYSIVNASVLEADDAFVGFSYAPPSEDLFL
As to the kind of experiment: Selectivity interaction (KinomeScan (DiscoverX)) EUB0000092b SGK3. As to conditions: at 10 µM.

The target in assay [10] is Ribosomal protein S6 kinase beta-1 (Homo sapiens, UniProt P23443). The experiment in a line: Selectivity interaction (KinomeScan (DiscoverX)) EUB0000595a RPS6KB1. The settings on record: at 10 µM.

Each structure is given as a SMILES string.

Chain of Serine/threonine-protein kinase Nek4 (Homo sapiens) (P51957 whole entry, looked up): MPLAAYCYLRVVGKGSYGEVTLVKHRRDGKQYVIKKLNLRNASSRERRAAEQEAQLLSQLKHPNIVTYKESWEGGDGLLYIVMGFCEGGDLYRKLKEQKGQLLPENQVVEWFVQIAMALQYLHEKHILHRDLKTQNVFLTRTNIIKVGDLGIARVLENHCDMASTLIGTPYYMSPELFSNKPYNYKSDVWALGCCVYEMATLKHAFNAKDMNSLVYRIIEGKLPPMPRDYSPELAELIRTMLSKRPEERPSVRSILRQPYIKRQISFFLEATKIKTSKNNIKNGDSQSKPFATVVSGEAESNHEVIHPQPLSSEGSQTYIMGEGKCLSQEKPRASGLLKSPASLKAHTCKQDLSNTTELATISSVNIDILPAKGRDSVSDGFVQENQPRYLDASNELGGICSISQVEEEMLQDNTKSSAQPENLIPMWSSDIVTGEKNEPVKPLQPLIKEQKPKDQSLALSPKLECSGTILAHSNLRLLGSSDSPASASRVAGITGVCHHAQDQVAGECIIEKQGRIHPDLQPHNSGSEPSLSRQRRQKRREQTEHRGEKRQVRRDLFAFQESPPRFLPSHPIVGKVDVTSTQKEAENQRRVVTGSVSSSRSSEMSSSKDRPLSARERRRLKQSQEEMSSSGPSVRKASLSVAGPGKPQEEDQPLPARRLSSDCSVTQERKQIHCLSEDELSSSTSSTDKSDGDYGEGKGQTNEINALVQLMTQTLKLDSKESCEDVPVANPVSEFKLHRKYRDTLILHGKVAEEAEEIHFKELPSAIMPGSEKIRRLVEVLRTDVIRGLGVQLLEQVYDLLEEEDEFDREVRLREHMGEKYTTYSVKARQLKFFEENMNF
Chain of Tyrosine-protein kinase Lck (P06239 2-509 limits assumed): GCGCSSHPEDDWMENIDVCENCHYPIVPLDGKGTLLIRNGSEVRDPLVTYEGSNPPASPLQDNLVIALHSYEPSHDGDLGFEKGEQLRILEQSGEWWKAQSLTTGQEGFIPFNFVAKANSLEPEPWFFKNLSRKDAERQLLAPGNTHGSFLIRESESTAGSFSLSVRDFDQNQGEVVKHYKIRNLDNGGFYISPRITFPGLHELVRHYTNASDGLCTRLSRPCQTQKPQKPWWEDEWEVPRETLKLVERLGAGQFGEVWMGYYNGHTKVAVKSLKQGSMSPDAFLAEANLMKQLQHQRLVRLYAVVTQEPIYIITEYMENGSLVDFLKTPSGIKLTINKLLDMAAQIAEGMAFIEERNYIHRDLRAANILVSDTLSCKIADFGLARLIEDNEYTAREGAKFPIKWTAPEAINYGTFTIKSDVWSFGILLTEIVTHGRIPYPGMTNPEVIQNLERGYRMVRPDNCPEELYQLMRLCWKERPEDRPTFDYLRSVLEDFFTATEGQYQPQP
Chain of 5'-AMP-activated protein kinase catalytic subunit alpha-2 (Homo sapiens) (P54646 whole entry, looked up): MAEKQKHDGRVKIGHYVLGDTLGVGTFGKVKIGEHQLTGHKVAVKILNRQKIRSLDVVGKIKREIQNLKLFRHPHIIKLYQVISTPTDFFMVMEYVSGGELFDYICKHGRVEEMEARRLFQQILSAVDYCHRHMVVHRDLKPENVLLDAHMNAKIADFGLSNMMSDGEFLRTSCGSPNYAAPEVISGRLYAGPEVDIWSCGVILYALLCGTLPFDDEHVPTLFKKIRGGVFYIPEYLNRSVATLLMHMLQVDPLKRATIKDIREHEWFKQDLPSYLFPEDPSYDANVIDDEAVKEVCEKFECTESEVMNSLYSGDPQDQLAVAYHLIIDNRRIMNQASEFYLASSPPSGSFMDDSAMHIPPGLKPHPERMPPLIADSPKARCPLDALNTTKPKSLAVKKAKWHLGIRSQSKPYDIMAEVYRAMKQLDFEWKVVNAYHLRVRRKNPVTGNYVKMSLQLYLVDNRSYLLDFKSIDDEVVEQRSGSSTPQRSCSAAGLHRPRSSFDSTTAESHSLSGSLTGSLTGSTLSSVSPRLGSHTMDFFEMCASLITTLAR
Chain of Cyclin-dependent kinase 5 (Q00535 whole entry, looked up): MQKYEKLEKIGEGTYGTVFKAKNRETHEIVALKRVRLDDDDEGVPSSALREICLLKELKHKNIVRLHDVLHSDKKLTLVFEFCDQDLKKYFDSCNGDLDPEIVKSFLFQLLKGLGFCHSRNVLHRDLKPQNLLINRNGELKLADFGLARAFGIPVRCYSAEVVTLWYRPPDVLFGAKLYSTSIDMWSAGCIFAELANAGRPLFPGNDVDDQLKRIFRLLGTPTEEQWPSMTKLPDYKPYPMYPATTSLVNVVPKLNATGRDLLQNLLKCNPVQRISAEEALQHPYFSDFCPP
Chain of Dual specificity protein kinase CLK3 (P49761 whole entry, looked up): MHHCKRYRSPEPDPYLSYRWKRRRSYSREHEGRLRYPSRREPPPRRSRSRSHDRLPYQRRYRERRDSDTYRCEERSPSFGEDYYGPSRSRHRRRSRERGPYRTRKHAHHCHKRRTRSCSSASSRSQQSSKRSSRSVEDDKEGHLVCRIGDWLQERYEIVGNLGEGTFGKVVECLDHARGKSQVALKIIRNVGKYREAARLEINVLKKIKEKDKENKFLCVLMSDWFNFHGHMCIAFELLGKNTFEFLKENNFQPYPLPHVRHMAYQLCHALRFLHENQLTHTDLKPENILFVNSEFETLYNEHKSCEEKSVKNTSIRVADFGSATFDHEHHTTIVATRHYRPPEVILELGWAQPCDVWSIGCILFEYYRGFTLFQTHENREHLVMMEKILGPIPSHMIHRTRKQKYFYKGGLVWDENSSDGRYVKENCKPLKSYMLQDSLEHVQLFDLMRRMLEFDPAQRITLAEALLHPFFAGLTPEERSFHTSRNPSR
Chain of Serine/threonine-protein kinase VRK2 (Homo sapiens) (Q86Y07 whole entry): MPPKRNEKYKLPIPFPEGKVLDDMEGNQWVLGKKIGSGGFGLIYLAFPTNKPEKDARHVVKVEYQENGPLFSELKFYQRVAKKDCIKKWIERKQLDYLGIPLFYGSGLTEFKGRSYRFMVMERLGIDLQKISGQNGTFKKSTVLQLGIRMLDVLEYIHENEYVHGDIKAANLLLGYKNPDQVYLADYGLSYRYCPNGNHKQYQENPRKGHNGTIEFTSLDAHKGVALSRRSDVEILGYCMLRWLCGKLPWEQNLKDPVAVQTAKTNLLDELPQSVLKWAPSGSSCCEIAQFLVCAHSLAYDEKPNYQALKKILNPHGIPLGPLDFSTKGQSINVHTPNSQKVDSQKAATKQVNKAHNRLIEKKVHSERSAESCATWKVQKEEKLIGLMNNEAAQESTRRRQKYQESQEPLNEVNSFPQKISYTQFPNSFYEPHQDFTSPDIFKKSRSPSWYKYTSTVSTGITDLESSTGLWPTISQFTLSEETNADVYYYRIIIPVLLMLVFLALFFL
Chain of Ribosomal protein S6 kinase beta-1 (P23443 whole entry, looked up): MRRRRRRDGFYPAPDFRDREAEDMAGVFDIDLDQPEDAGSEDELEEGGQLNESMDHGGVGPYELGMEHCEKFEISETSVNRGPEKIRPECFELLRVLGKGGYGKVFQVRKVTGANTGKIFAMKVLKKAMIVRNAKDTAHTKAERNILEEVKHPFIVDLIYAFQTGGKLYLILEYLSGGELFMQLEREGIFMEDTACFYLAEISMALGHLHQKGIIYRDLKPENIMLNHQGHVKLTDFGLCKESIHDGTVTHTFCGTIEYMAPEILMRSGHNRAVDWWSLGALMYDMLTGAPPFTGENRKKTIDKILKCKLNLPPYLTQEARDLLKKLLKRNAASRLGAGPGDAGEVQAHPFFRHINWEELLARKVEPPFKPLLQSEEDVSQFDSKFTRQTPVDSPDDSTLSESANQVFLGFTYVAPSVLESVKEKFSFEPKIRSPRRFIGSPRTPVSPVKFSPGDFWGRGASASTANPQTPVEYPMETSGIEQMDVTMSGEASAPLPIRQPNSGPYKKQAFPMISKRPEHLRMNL

`Cn1cc(-n2cnc3c(NCc4nc5cc(Cl)c(Cl)cc5[nH]4)nc(N4CCOCC4)nc32)cn1` registered a % of control in assay [1] of 7.05%.

The molecule `Cc1cc([C@@H](C)Nc2ccccc2C(=O)O)c2nc(N3CCOCC3)cc(=O)n2c1` [AZD-6482] had a % of control in [2] of 100%.

On to `CN(C)CCOc1ccc(-c2nc(-c3ccncc3)c(-c3ccc4c(c3)CC/C4=N\O)[nH]2)cc1`, for which the % of control in assay [3] stood at 87%; in assay [4] it was 94%.

Regarding `Nc1cnc(N2CCc3cc(S(=O)(=O)Nc4c(F)cc(Cl)cc4F)cc(N4CCCC4=O)c32)nc1` [TP-020n], the % of control in assay [5] amounted to 100%.

For the molecule `CCc1cc(Nc2nccc(-c3c(-c4ccc(OC)c(C(=O)Nc5c(F)cccc5F)c4)nc4ccccn34)n2)c(OC)cc1N1CCC(N2CCN(S(C)(=O)=O)CC2)CC1`, in assay [6], the % of inhibition came out at 47%.

As to `CC[C@@H](Nc1c(C#N)c(-c2ccc(-c3cccc(C)c3F)cc2)nc2cnccc12)C(=O)O` [BAY-091], the % of inhibition in assay [7] is 32.1%.

As to `CCC(=O)N1CCN(c2ccc(-n3c(=O)ccc4cnc5ccc(-c6cnc7ccccc7c6)cc5c43)cc2C(F)(F)F)CC1`, the % of control in assay [8] and in assay [9] was 100% in each case.

For the molecule `COCC(=O)NC/C=C/c1ccc2ncnc(Nc3ccc(Oc4ccc(C)nc4)c(C)c3)c2c1` [CP-724714], in assay [10], the % of control was 65%.

Source of the values: ChEMBL document CHEMBL5465560, “Selectivity Literature for EUbOPEN Chemogenomic Library” (2024).
